Data from patent US20010047099A1, “4-aminopicolinates and their use as herbicides” (priority 2000, published 2001).

Legend:
Format in all cases: in vivo
[1] = tested on: chickweed (Stellaria media); experiment: Postemergence herbicidal activity; settings: rate 125 ppm
Procedure, shortened: (§1)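 Foliar spray at 1st–2nd true leaf; 1 ppm ≈ 1 g/Ha. Carrier: acetone/water/IPA/DMSO plus crop oil concentrate and Triton X-155. Greenhouse, sub-irrigated. Visual rating vs untreated at 2 wk, 0 = no injury, 100 = complete kill.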

[2] = tested on: cocklebur (Xanthium strumarium); experiment: Postemergence herbicidal activity; settings: Table 1; rate 125 ppm; visual, after 2 weeks
Procedure, shortened: as §1

[3] = tested on: lambsquarters (Chenopodium album); experiment: Postemergence herbicidal activity; settings: Table 5; rate 125 ppm
Procedure, shortened: as §1

[4] = tested on: wild buckwheat (Polygonum convolvulus); experiment: Postemergence herbicidal activity; settings: rate 125 ppm
Procedure, shortened: as §1

[5] = tested on: wheat (Triticum aestivum); experiment: Postemergence herbicidal activity, selectivity to wheat; settings: Table 5; crop (wheat); rate 125 ppm
Protocol: Seeds of the desired test plant species were planted in Grace-Sierra MetroMix® 306 planting mixture, which typically has a pH of 6.0 to 6.8 and an organic matter content of about 30 percent, in plastic pots with a surface area of 64 square centimeters. When required to ensure good germination and healthy plants, a fungicide treatment and/or other chemical or physical treatment was applied. The plants were grown for 7-21 days in a greenhouse with an approximate 15 hr photoperiod which was maintained at about 23-29° C. during the day and 22-28° C. during the night. Nutrients and water were added on a regular basis and supplemental lighting was provided with overhead metal halide 1000-Watt lamps as necessary. The plants were employed for testing when they reached the first or second true leaf stage.
A weighed amount, determined by the highest rate to be tested, of each test compound was placed in a 20 mL glass vial and was dissolved in 4 mL of a 97:3 v/v (volume/volume) mixture of acetone and dimethyl sulfoxide (DMSO) to obtain concentrated stock solutions. […] The concentrated stock solutions obtained were diluted with an aqueous mixture containing acetone, water, isopropyl alcohol, DMSO, Atplus 411F crop oil concentrate, and Triton X-155 surfactant in a 48.5:39:10:1.5:1.0:0.02 v/v ratio to obtain spray solutions of known concentration. The solutions containing the highest concentration to be tested were prepared by diluting 2 mL aliquots of the stock solution with 13 mL of the mixture and lower concentrations were prepared by serial dilution of the stock solution. Approximately 1.5 mL aliquots of each solution of known concentration were sprayed evenly onto each of the test plant pots using a DeVilbiss atomizer driven by compressed air pressure of 2 to 4 psi ([…]) to obtain thorough coverage of each plant. Control plants were sprayed in the same manner with the aqueous mixture. In this test an application rate of 1 ppm results in the application of approximately 1 g/Ha.
The treated plants and control plants were placed in a greenhouse as described above and watered by sub-irrigation to prevent wash-off of the test compounds. After 2 weeks the condition of the test plants as compared with that of the untreated plants was determined visually and scored on a scale of 0 to 100 percent where 0 corresponds to no injury and 100 corresponds to complete kill.

[6] = tested on: morningglory (Ipomoea hederacea); experiment: Preemergence herbicidal activity; settings: Table 6 (headed Post-emergent; text: preemergence); rate 560 ppm; after 3 weeks
Procedure, shortened: (§2)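 Percent injury or lack of germination was judged by eye against untreated pots at 3 weeks, where 100 means complete kill. Before emergence, seeded 70:30 loam-sand soil received a surface spray of compound in water with 0.1% Tween 155 (acetone/DMSO carrier); greenhouse 15 h photoperiod, about 22-29° C.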

[7] = tested on: pigweed (Amaranthus retroflexus); experiment: Preemergence herbicidal activity; settings: Table 6 (headed Post-emergent; text: preemergence); rate 560 ppm; after 3 weeks
Procedure, shortened: as §2

[8] = tested on: velvetleaf (Abutilon theophrasti); experiment: Preemergence herbicidal activity; settings: Table 6 (headed Post-emergent; text: preemergence); rate 560 ppm; after 3 weeks
Procedure, shortened: as §2

[9] = tested on: Canada thistle (Cirsium arvense); experiment: Range & Pasture Crop Testing (postemergence track sprayer)
Protocol: (§3) By applying the well-accepted probit analysis as described by J. Berkson in Journal of the […], 48, 565 (1953) and by D. Finney in “Probit Analysis” Cambridge University Press (1952), the above data can be used to calculate GR50 and GR80 values, which are defined as growth reduction factors that correspond to the effective dose of herbicide required to kill or control 50 percent or 80 percent, respectively, of a target plant.
(§4) Rates are calculated based upon 5 doses being applied. The high rate (X), followed by serial dilutions of 1/2×, 1/4×, 1/8× and 1/16×. Compound requirements are based upon the 187 L/ha carrier volume, specifications of the delivery system (Mandel track sprayer) and generating 24 mL of technical spray material to allow for the dilutions and overage in the sprayer. [formula]
(§5) All technical materials were formulated in 97:3 (acetone:DMSO) with 0.25% X-77. The total volume of solvent is maintained at less than 7%. An overhead Mandel track sprayer calibrated to deliver 187 L/ha was used for all treatment applications (postemergence). Picloram was included as a comparison treatment.
(§6) Solutions were applied with a mechanized track-sprayer at the following settings:
(§7) Spray height: 17 inches above top of plants
(§8) This provides an application volume of 187 L/ha.
(§9) Percent weed control (burn down) was evaluated 3 weeks after treatment. Visual control on a 0-100 linear scale was used, with 0 representing no control and 100 representing total control. Burn down ratings were taken for annual and perennial weed species.

[10] = tested on: broadleaf dock (Rumex obtusifolia); experiment: as above; settings: Table 9; rate 70 g/Ha; 3 weeks after treatment
Protocol: as §4, §5, §6, §7, §8, §9

[11] = tested on: common ragweed (Ambrosia artemisiifolia); experiment: as above; settings: Table 9; rate 70 g/Ha; 3 week evaluation
Protocol: as §4, §5, §6, §7, §8, §9

[12] = tested on: crested wheatgrass (Agropyron cristatum) (grass crop); experiment: as above; settings: Table 9, rate 70 g/Ha, 3 weeks after treatment
Protocol: as §4, §5, §6, §7, §8, §9

[13] = tested on: field bindweed (Convolvulus arvensis); experiment: as above; settings: Table 8; salts of Compound 1; dose for 80 percent control
Protocol: as §3, §4, §5, §6, §7, §8, §9

[14] = tested on: sicklepod (Cassia obtusifolia); experiment: as above; settings: Table 8; salts of Compound 1; dose for 80 percent control
Protocol: as §3, §4, §5, §6, §7, §8, §9

| Molecule | Post-emergent % Control STEME ([1]; Table 1, visual, after 2 weeks) [%] | Post-emergent Evaluation - % control STEME ([1]; Table 5) [%] | Post-emergent % Control XANST [2] [%] | Post-emergent Evaluation - % control CHEAL [3] [%] | Post-emergent % Control POLCO ([4]; Table 1, visual, after 2 weeks) [%] | Post-emergent Evaluation - % control POLCO ([4]; Table 5) [%] | Post-emergent Evaluation - % control TRZAS [5] [%] | % Control IPOHE [6] [%] | % Control AMARE [7] [%] | % Control ABUTH [8] [%] | Post-emergent Evaluation - % control CIRAR ([9]; Table 9, rate 70 g/Ha, 3 weeks after treatment) [%] | Post-emergent Evaluation - % control RUMOB [10] [%] | Post-emergent Evaluation - % control AMBEL [11] [%] | Post-emergent Evaluation - % control AGRCR [12] [%] | Post-emergent GR80 CIRAR ([9]; Table 8, salts of Compound 1, 3 week evaluation) [g/Ha] | Post-emergent GR80 CONAR [13] [g/Ha] | Post-emergent GR80 CASOB [14] [g/Ha] |
| --- | --- | --- | --- | --- | --- | --- | --- | --- | --- | --- | --- | --- | --- | --- | --- | --- | --- |
| 4-Amino-3,6-dichloro-5-methylthiopyridine-2-carboxylic acid [Compound 23] | 90 | 30 | 90 | 90 | 98 | 98 | 20 | 0 | 40 | 40 | 80 | 100 | 85 | 30 | – | – | – |
| Nc1cc(Cl)nc(C(=O)[O-])c1Cl.[K+] [potassium salt] | – | – | – | – | – | – | – | – | – | – | – | – | – | – | 27 | 36 | <8.8 |
